Test [1] addresses T1, MLL4PHD2/3 V290K (Homo sapiens, UniProt O14686, V290K).
T1 construct: MLL4 (aa 227-324); GST (N, cleaved yes); made in house; host or cells: E. coli BL21-CodonPlus
The test is described as follows: NMR titration binding, V290K MLL4PHD2/3. The settings on record: 1H,15N HSQC titration, 0.1 mM protein, 20 mM Tris pH 6.8, 150 mM NaCl, 298 K. As for the experimental part: (§1) All constructs were expressed in BL21-CodonPlus competent cells.
(§2) For NMR titration experiments, ^1H,^15N HSQC spectra of 0.1 mM uniformly ^15N-labeled WT or mutated MLL4PHD2/3, MLL3PHD2/3 or MLL3PHD4 were recorded while WT or mutated ASXL2 (aa 650-670, 650-664, 656-670) and ASXL3 (aa 1047-1067) peptides (synthesized by SynPeptide) or MLL3PHD2/3 were added stepwise. All experiments were carried out in 20 mM Tris buffer (pH 6.8), 150 mM NaCl, and 3 mM DTT, containing 7% D2O. The dissociation constants (Kds) were determined by a nonlinear least-squares analysis in GraphPad Prism using the equation:1 △δ=△δmaxL+P+Kd−L+P+Kd^2−4PL/2P where [L] is concentration of the peptide, [P] is concentration of the protein, Δδ is the observed chemical shift change, and Δδmax is the normalized chemical shift change at saturation. Normalized chemical shift changes were calculated using the equation Δδ=△δH^2+△sn/5^2 (2), where Δδ is the change in chemical shift in parts per million (ppm).

The target in test [2] is T2, MLL4PHD2/3 L256K (Homo sapiens, UniProt O14686, L256K).
T2 construct: MLL4 (aa 227-324); GST (N, cleaved yes); made in house; host or cells: E. coli BL21-CodonPlus
T2 sequence (O14686 227-324 L256K): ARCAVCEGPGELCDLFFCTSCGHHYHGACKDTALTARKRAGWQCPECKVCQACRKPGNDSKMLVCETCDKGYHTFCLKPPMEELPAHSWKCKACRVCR
The test is described as follows: NMR titration binding, L256K MLL4PHD2/3. The settings on record: 1H,15N HSQC, 0.1 mM protein, 20 mM Tris pH 6.8, 298 K. As for the experimental part: as §1, §2

In test [3] the target is T3, MLL4PHD2/3 D285K (Homo sapiens, UniProt O14686, D285K).
T3 construct: MLL4 (aa 227-324); GST (N, cleaved yes); made in house; host or cells: E. coli BL21-CodonPlus
T3 sequence (O14686 227-324 D285K): as the sequence (O14686 227-324 L256K) above, with K30L, D59K counted along it
The experiment in a line: NMR titration binding, D285K MLL4PHD2/3. The settings on record: 1H,15N HSQC titration, 0.1 mM protein, 20 mM Tris pH 6.8, 150 mM NaCl, 3 mM DTT, 7% D2O, 298 K, mean ± SD, n = 3. The procedure: as §1
Normalized chemical shift changes were calculated using the equation Δδ=△δH^2+△sn/5^2 (2), where Δδ is the change in chemical shift in parts per million (ppm).

The target in test [4] is T4, MLL4PHD2/3 K274E (Homo sapiens, UniProt O14686, K274E).
T4 construct: MLL4 (aa 227-324); GST (N, cleaved yes); made in house; host or cells: E. coli BL21-CodonPlus
T4 sequence (O14686 227-324 K274E): as the sequence (O14686 227-324 L256K) above, with K30L, K48E counted along it
The test is described as follows: NMR titration binding, K274E MLL4PHD2/3. As to conditions: 1H,15N HSQC titration, 0.1 mM protein, 20 mM Tris pH 6.8, 150 mM NaCl, 298 K. The procedure: as §1, §2

Test [5] deals with T5, MLL4PHD2/3 D257K/D285K (Homo sapiens, UniProt O14686, D257K/D285K).
T5 construct: MLL4 (aa 227-324); GST (N, cleaved yes); made in house; host or cells: E. coli BL21-CodonPlus
T5 sequence (O14686 227-324 D257K/D285K): as the sequence (O14686 227-324 L256K) above, with K30L, D31K, D59K counted along it
The experiment in a line: NMR titration binding, D257K/D285K MLL4PHD2/3. The settings on record: 1H,15N HSQC titration, 0.1 mM protein, 20 mM Tris pH 6.8, 150 mM NaCl, 298 K. The procedure:
as §1, §2

Test [6] concerns the target T6, MLL3PHD2/3 D372K/D400K (Homo sapiens, UniProt Q8NEZ4, D372K/D400K).
T6 construct: human MLL3 (aa 342-439); GST (N, cleaved yes); made in house; host or cells: E. coli BL21-CodonPlus
The experiment in a line: NMR titration binding, D372K/D400K MLL3PHD2/3. As to conditions: 1H,15N HSQC titration, 0.1 mM protein, 20 mM Tris pH 6.8, 150 mM NaCl, 298 K. As for the experimental part:
as §1, §2

Ends that are not written are not given here.

As a reminder, the Kd is the constant that tells how readily two partners part at equilibrium.

T6 sequence (Q8NEZ4 342-439 D372K/D400K): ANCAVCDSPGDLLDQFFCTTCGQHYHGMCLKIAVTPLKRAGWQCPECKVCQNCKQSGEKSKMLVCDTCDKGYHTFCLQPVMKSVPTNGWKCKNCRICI
T1 sequence (O14686 227-324 V290K): as the sequence (O14686 227-324 L256K) above, with K30L, V64K counted along it

With NRTGARTLADIKAKAQLVKAQ [ASXL2 650-670], the Kd entry in test [1] is “no binding”; in test [2], “unfolded”; in test [3], 1700 µM; in test [4], “no binding”; in test [5], “no binding”; in test [6], “no binding”.

The values above are taken from article PMC11161652, “ASXLs binding to the PHD2/3 fingers of MLL4 provides a mechanism for the recruitment of BAP1 to active enhancers” (Nature Communications, 2024).
